Common to all, as to format: in vitro ADME
Series [1] in a line: Plasma protein binding by equilibrium dialysis, dog. The settings on record: plasma (EDTA-K2 as anticoagulant). How it is done: (§1) The in vitro binding of ZB716 to plasma proteins was determined by equilibrium dialysis technique in mouse, rat, dog, monkey, and human plasma (EDTA-K2 as anticoagulant), over the concentration range of 0.1–10 μM. The free concentration of ZB716 was below the lower limit of quantitation at 0.1, 1, and 10 μM in human, monkey, dog, rat, and mouse plasma.
(§2) The equilibrium dialysis method was used to investigate the in vitro binding of ZB716 to human, monkey, dog, rat, and mouse plasma proteins. The dialysis phosphate buffer solution (100 mM, pH 7.4) and plasma samples containing 0.1, 1, and 10 μM of ZB716 were added to separate chambers of dialysis wells of the HTDialysis device. The dialysis plate was placed in an incubator at 37 °C with 5% CO2 at approximately 100 rpm for 6 h. After incubation, the seal was removed, and 50 μL each of post-dialysis samples was pipetted from both the buffer and plasma chambers into fresh 96-well plates. The samples were analyzed via UPLC–MS/MS. The bound fraction, unbound fraction, recovery (%), and remaining (%) were calculated by Equations (2)–(5):%Unbound = (Conc.buffer chamber/Conc.plasma chamber) × 100(2) %Bound = 100% − %Unbound (3) %Recovery = (Conc.buffer chamber + Conc.plasma chamber)/Conc.Total sample × 100 (4) %Remaining = Conc.6h/Conc.0h × 100 (5)
(In general: Equilibrium dialysis compares concentrations on both sides of a semipermeable membrane.)

The subject of another series is dog plasma proteins. Described as above. The settings on record: for Remaining: 6 h. How it is done:
as §1, §2

In a further series the target is T1, CYP2C8 (Homo sapiens, UniProt P10632).
T1 sequence (P10632 1-490): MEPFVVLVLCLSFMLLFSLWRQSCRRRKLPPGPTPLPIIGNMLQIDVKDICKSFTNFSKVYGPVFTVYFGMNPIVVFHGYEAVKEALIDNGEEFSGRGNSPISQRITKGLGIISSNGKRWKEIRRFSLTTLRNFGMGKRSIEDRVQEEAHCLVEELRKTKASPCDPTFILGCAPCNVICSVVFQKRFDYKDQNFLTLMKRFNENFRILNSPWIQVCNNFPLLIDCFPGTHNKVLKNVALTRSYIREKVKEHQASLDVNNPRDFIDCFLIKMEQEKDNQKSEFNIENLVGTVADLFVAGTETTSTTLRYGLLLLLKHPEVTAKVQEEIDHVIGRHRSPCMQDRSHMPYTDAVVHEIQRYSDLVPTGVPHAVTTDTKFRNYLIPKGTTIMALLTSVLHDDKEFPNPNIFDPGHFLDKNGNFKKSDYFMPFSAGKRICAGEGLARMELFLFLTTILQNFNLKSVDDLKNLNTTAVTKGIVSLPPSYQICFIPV
The series is described as follows: CYP inhibition in human liver microsomes, CYP2C8. The following applies: HLM, marker substrate Amodiaquine. How it is done: . The inhibition of CYP2B6 and 3A4 (when midazolam was used as the substrate) by ZB716 was not observed. The inhibitory potential of ZB716 on human CYP enzyme activities appears relatively low.
The final concentrations of ZB716 in the incubation system were 0, 0.05, 0.15, 0.5, 1.5, 5, and 15 µM (final organic solvent concentration ≤ 1%). […] . […] The concentrations of the isoform-specific metabolites derived from marker substrates were measured by UPLC–MS/MS. The IC50 values were calculated from the percentages of the rate of the metabolite formation relative to non-inhibited controls vs. the concentrations of ZB716 or positive control inhibitors. All incubations were performed in triplicate. The mean of the enzyme activity (% of non-inhibited control) for each concentration was plotted against the log inhibitor concentration, and fitted to an IC50 curve.

Bounds are passed on as bounds.

As for `C[C@]12CC[C@@H]3c4ccc(B(O)O)cc4C[C@@H](CCCCCCCCC[S+]([O-])CCCC(F)(F)C(F)(F)F)[C@H]3[C@@H]1CC[C@@H]2O` (stereo partly drawn) [ZB716, fulvestrant-3-boronic acid], in series [1] (pH 7.4, 0.1 μM), the recovery at 6 h, 0.1 μM is less than 63.5%. This compound also showed a recovery at 6 h, 1 μM in series [1] (pH 7.4, 1 μM) of less than 64.9%. In series [1] (pH 7.4, 10 μM), this compound gave a recovery at 6 h, 10 μM of less than 68.7%. Moreover, in the series on dog plasma proteins (0.1 μM), the Bound was greater than 95.6% and the Remaining worked out at 39.1 ± 1.8%. In the series on dog plasma proteins (1 μM), this compound showed a Bound greater than 99.6%, an Unbound of less than 0.373% and a Remaining of 53.2 ± 4.4%. Further, in the series on dog plasma proteins (10 μM), the Bound is greater than 99.96%, the Unbound is on record as less than 0.0412% and the Remaining is on record as 65.2 ± 4.3%. Moreover, the concentration for half-maximal inhibition (IC50) against CYP2C8 is 6.27 µM.

As usually defined, the IC50 is the concentration that gives 50% inhibition. A low value points to greater potency in that assay.

The record behind these values is article PMC8400955 (Pharmaceuticals, 2021).
